The structures appear in SMILES notation.

The target of the experiment is T1, BACE enzyme (Homo sapiens, UniProt P56817).
T1 construct: the catalytic domain, appended by a C-terminal poly-histidine tag, is secreted out into the cellular medium; made in house; host or cells: Drosophila melanogaster S2 cells
T1 sequence (P56817 75-416 limits assumed): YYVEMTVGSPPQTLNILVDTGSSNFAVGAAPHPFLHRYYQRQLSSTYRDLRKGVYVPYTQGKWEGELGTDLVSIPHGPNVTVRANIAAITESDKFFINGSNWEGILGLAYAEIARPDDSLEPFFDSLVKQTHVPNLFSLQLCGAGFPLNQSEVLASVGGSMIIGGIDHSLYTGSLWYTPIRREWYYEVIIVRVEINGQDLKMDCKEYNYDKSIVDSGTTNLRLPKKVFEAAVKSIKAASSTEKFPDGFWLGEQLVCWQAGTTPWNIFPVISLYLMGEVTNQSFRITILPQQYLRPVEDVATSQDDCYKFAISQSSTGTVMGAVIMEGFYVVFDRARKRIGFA
Nature of the experiment: BACE enzyme inhibition, fluorescence-quenched peptide substrate MCA-EVNLDAEFK(DNP). Type of experiment: biochemical. The note with it: 50 mM acetate, pH 4.5, 0.25 mg/ml bovine serum albumin, 2.5% DMSO; read-out: Activity Rating (based on IC50 values). The text has this:
There are a number of methods by which inhibitors of the BACE enzyme can be identified experimentally. The enzyme can be obtained from membrane samples from natural tissues or cultured cells or can be expressed recombinantly in a host cell by well known methods of molecular biology. […] The enzymatic activity and/or ligand binding capability of the enzyme can be assessed within these membrane samples, or the enzyme can be purified to varying extents. As an illustrative example, the nucleic acid sequence encoding the pro and catalytic domains of human BACE can be appended on the 5′ end with an untranslated and signal sequence from the gene for acetylcholinesterase, and on the 3′ end with a sequence encoding a poly-histidine tag. This cDNA can then be expressed in Drosophila melanogaster S2 cells in which the signal and pro sequences of the transcribed/translated protein are removed by cellular proteases and the catalytic domain, appended by a C-terminal poly-histidine tag, is secreted out into the cellular medium. The enzyme can then be purified from the culture medium by nickel affinity chromatography by methods well known to those trained in the art [Mallender, W. et al., (2001) “Characterization of recombinant, soluble beta-secretase from an insect cell expression system.” Mol. Pharmacol. 59: 619-626]. Similar strategies for expressing and purifying various forms of BACE in bacterial, mammalian and other cell types would be known to one skilled in the art.
The enzyme thus obtained can be put in contact with a test compound and with an appropriate substrate on which enzyme-mediated peptide bond hydrolysis is known to occur. The ability of the test compound to diminish the rate of substrate hydrolysis can then be quantified as a measure of inhibition potency. Appropriate substrates can be prepared as peptides, proteins, or chemically modified versions of peptides or proteins, that contain an amino acid sequence that is recognized as a substrate by the enzyme. For example, the amino acid sequence immediately proximal to the beta-cleavage site within Swedish mutant APP is known to be recognized as a substrate for BACE. […] Longer peptide and protein substrates can also be designed by extending the amino acid composition on the N-terminal, the C-terminal, or both ends.
In one known application of (SEQ. ID. NO.:1), X is a 7-methoxycoumarin-4-acetyl (MCA) group and Y is a dinitrophenyl (DNP) group [Marcinkeviciene, J. et al., (2001) “Mechanism of inhibition of beta-site amyloid precursor protein-cleaving enzyme (BACE) by a statine-based peptide.” J. Biol. Chem. 276: 23790-23794]. When this peptide is intact, the natural fluorescence of the MCA group is quenched by its proximity to the DNP group. […] The increase in fluorescence intensity that accompanies enzyme-mediated peptide hydrolysis can be measured as a function of time to quantify the velocity of enzyme catalysis. In a typical assay system the BACE enzyme is diluted into a buffer system composed of 50 mM acetate, pH 4.5 containing 0.25 mg/ml bovine serum albumin. To this is added neat dimethyl sulfoxide (DMSO) or a stock solution of test compound dissolved in DMSO so that the final amount of DMSO in all assays is held constant at 2.5% (v:v). The enzymatic reaction is then initiated by addition of a stock solution of the substrate peptide to a known concentration. The fluorescence increase with time after substrate addition is monitored with an appropriate fluorescence detection instrument, such as a microplate reader or spectrofluorometer. The slope of the signal vs. time plot (progress curve) for samples to which only DMSO was added is taken as a measure of the uninhibited velocity and represents 100% enzymatic activity.
Regarding `COc1cccc(CNC[C@@H](O)[C@H](Cc2ccccc2)NC(=O)[C@H](CCc2ccccc2)N2CC[C@](CC3CC3)(NC(C)=O)C2=O)c1` [Example 7, (2S)-2-(3(S)-Acetylamino-3(-cyclopropylmethyl)-2-oxo-pyrrolidin-1-yl)-N-[(1S,2R)-1-benzyl-2-hydroxy-3-(3-methoxy-benzylamino)-propyl]-4-phenyl-butyramide], the IC50 (commonly the concentration needed to halve the response being measured) is less than 100 nM.
Consider `COc1cccc(CNC[C@@H](O)[C@H](Cc2ccccc2)NC(=O)[C@H](CCc2ccccc2)N2CC[C@@](CC3CC3)(NC(C)=O)C2=O)c1` [Example 6, (2S)-2-(3(R)-Acetylamino-3(-cyclopropylmethyl)-2-oxo-pyrrolidin-1-yl)-N-[(1S,2R)-1-benzyl-2-hydroxy-3-(3-methoxy-benzylamino)-propyl]-4-phenyl-butyramide], for which the IC50 fell in the range of 1000 to 50000 nM.
Consider `CC[C@H](C)[C@@]1(NC(=O)COC)CCN([C@@H](CCc2ccccc2)C(=O)N[C@@H](CC(C)C)[C@H](O)CNCc2cccc(OC)c2)C1=O` [Example 5, (2S)-2-(3-((S)-sec-butyl)-3-(2-methoxy-acetylamino)-2-oxo-pyrrolidin-1-yl)-N—(S)-{1(R)-[1-hydroxy-2-(3-methoxy-benzylamino)-ethyl]-3-methyl-butyl}-4-phenyl-butyramide], for which the IC50 lay in the range of 1000 to 50000 nM.
`CC[C@H](C)[C@@]1(NC(C)=O)CCN([C@@H](CCc2ccccc2)C(=O)N[C@@H](Cc2cc(F)cc(F)c2)[C@H](O)CNCc2cccc(OC)c2)C1=O` [Example 2, (2S)-2-(3(S)-Acetylamino-3-((S)-sec-butyl)-2-oxo-pyrrolidin-1-yl)-N-[(1S,2R)-1-(3,5-difluoro-benzyl)-2-hydroxy-3-(3-methoxy-benzylamino)-propyl]-4-phenyl-butyramide]: the IC50 was less than 100 nM.
As for `CCC(=O)N[C@]1([C@@H](C)CC)CCN([C@@H](CCc2ccccc2)C(=O)N[C@@H](CC(C)C)[C@H](O)CNCc2cccc(OC)c2)C1=O` [Example 4, 2(S)-(3(S)-((S)-sec-butyl)-2-oxo-3-propionylamino-pyrrolidin-1-yl)-N—(S)-{1(R)-[1-hydroxy-2-(3-methoxy-benzylamino)-ethyl]-3-methyl-butyl}-4-phenyl-butyramide], the 50% inhibitory concentration (IC50) was 100 to 1000 nM.
On to `CCCNC(=O)N[C@]1([C@@H](C)CC)CCN([C@@H](CCc2ccccc2)C(=O)N[C@@H](Cc2ccccc2)[C@H](O)CNCc2cccc(OC)c2)C1=O` [Example 17, (2S)-2-(3(S)-propylureido-3-((S)-sec-butyl)-2-oxo-pyrrolidin-1-yl)-N-[(1S,2R)-1-benzyl-2-hydroxy-3-(3-methoxy-benzylamino)-propyl]-4-phenyl-butyramide], for which the concentration for half-maximal inhibition (IC50) was 100 to 1000 nM.
Take `CCOC(=O)N[C@]1([C@@H](C)CC)CCN([C@@H](CCc2ccccc2)C(=O)N[C@@H](Cc2ccccc2)[C@@H](O)CNCc2cccc(OC)c2)C1=O` [Example 13, (2S)-2-(3(S)-ethoxycarbonylamino-3-((S)-sec-butyl)-2-oxo-pyrrolidin-1-yl)-N-[(1S,2S)-1-benzyl-2-hydroxy-3-(3-methoxy-benzylamino)-propyl]-4-phenyl-butyramide]: the IC50 is 1000 to 50000 nM.
`CCC(=O)N[C@]1([C@@H](C)CC)CCN([C@@H](CCc2ccccc2)C(=O)N[C@@H](Cc2ccccc2)[C@H](O)CNCc2cccc(OC)c2)C1=O` [Example 10, (2S)-2-(3(S)-propionylamino-3-((S)-sec-butyl)-2-oxo-pyrrolidin-1-yl)-N-[(1S,2R)-1-benzyl-2-hydroxy-3-(3-methoxy-benzylamino)-propyl]-4-phenyl-butyramide]: the IC50 was less than 100 nM.
Consider `CC[C@H](C)[C@@]1(NC(=O)COC)CCN([C@@H](CCc2ccccc2)C(=O)N[C@@H](Cc2ccccc2)[C@H](O)CNCc2cccc(OC)c2)C1=O` [Example 9, (2S)-2-(3(S)-(2-methoxy-acetylamino)-3-((S)-sec-butyl)-2-oxo-pyrrolidin-1-yl)-N-[(1S,2R)-1-benzyl-2-hydroxy-3-(3-methoxy-benzylamino)-propyl]-4-phenyl-butyramide], for which the IC50 is less than 100 nM.
Turning to `CC[C@H](C)[C@@]1(NC(C)=O)CCN([C@@H](CCc2ccccc2)C(=O)N[C@@H](Cc2ccccc2F)[C@H](O)CNCc2cccc(Cl)c2)C1=O` [Example 12, (2S)-2-(3(S)-acetylamino-3-((S)-sec-butyl)-2-oxo-pyrrolidin-1-yl)-N-[(1S,2R)-1-(2-fluorobenzyl)-2-hydroxy-3-(3-chloro-benzylamino)-propyl]-4-phenyl-butyramide], the half-inhibitory concentration (IC50) fell in the range of 100 to 1000 nM.
With `CC[C@H](C)[C@@]1(NC(C)=O)CCN([C@@H](CCc2ccccc2)C(=O)N[C@@H](Cc2ccccc2)[C@H](O)CNCc2cc(F)cc(F)c2)C1=O` [Example 33, (2S)-2-(3(S)-acetylamino-3-((S)-sec-butyl)-2-oxo-pyrrolidin-1-yl)-N-[(1S,2R)-1-benzyl-2-hydroxy-3-(3,5-difluorobenzylamino)-propyl]-4-phenyl-butyramide], the IC50 was less than 100 nM.

For the origin of these results see US7557137B2, “Gamma-lactams as beta-secretase inhibitors” (Bristol-Myers Squibb Company, priority 2002, dated 2009).
